Experimental data as given in patent US11124494B2, “Aryl heterocyclic piperidinone formyl peptide 2 receptor and formyl peptide 1 receptor agonists” (Bristol-Myers Squibb Company, priority 2017, dated 2021).
Where two headings read alike, the source gives them in different places.

Experiments:
human FPR2 receptors = human FPR2 receptors (Homo sapiens (Human), UniProt P25090); test: FPR2 cyclic adenosine monophosphate (cAMP) assay; type: cell-based; conditions: CHO cells overexpressing human FPR2
Experimental: (§1) FPR2 and FPR1 Cyclic Adenosine Monophosphate (cAMP) Assays. A mixture of forskolin (5 μM final for FPR2 or 10 μM final for FPR1) and IBMX (200 μM final) were added to 384-well Proxiplates (Perkin-Elmer) pre-dotted with test compounds in DMSO (1% final) at final concentrations in the range of 1.7 nM to 100 μM. Chinese Hamster Ovary cells (CHO) overexpressing human FPR1 or human FPR2 receptors were cultured in F-12 (Ham's) medium supplemented with 10% qualified FBS, 250 μg/ml zeocin and 300 μg/ml hygromycin (Life Technologies). Reactions were initiated by adding 2,000 human FPR2 cells per well or 4,000 human FPR1 cells per well in Dulbecco's PBS (with calcium and magnesium) (Life Technologies) supplemented with 0.1% BSA (Perkin-Elmer). The reaction mixtures were incubated for 30 min at room temperature. The level of intracellular cAMP was determined using the HTRF HiRange cAMP assay reagent kit (Cisbio) according to manufacturer's instruction. Solutions of cryptate conjugated anti-cAMP and d2 flurorophore-labelled cAMP were made in a supplied lysis buffer separately. Upon completion of the reaction, the cells were lysed with equal volume of the d2-cAMP solution and anti-cAMP solution. After a 1-h room temperature incubation, time-resolved fluorescence intensity was measured using the Envision (Perkin-Elmer) at 400 nm excitation and dual emission at 590 nm and 665 nm. A calibration curve was constructed with an external cAMP standard at concentrations ranging from 1 μM to 0.1 pM by plotting the fluorescent intensity ratio from 665 nm emission to the intensity from the 590 nm emission against cAMP concentrations. The potency and activity of a compound to inhibit cAMP production was then determined by fitting to a 4-parametric logistic equation from a plot of cAMP level versus compound concentrations.

human FPR1 receptors = human FPR1 receptors (Homo sapiens (Human), UniProt P21462); test: FPR1 cyclic adenosine monophosphate (cAMP) assay; type: cell-based; conditions: CHO cells overexpressing human FPR1; forskolin 10 μM, IBMX 200 μM; inhibition of cAMP production; read-out: hFPR1 cAMP EC50
Experimental: as §1

[1] = forskolin 5 μM, IBMX 200 μM, inhibition of cAMP production, read-out: hFPR2 cAMP2 EC50
[2] = hFPR2 Assay, potency bins, read-out: hFPR2 agonist activity EC50 values

human FPR2 receptors, sequence (P25090 whole entry): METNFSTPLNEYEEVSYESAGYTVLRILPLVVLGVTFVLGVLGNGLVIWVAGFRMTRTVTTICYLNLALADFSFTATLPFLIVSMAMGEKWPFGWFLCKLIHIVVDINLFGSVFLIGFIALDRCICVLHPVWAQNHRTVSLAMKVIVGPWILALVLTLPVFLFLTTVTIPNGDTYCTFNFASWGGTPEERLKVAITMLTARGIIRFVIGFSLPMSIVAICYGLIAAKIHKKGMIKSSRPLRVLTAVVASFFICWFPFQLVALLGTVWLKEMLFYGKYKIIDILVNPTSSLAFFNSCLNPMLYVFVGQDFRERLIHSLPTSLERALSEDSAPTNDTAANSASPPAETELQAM
human FPR1 receptors, sequence (P21462 whole entry): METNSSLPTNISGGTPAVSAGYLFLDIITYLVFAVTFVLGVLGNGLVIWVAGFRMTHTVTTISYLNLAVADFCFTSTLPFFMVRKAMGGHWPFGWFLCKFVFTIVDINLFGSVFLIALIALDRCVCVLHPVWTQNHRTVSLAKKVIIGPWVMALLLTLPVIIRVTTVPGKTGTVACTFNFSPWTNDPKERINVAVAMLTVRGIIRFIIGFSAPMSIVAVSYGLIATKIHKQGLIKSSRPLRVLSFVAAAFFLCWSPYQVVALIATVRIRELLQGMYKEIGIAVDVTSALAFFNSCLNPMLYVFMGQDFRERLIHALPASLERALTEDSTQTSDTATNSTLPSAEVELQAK

SMILES | EC50 (human FPR2 receptors; [1]) | EC50 (human FPR1 receptors) | EC50 (human FPR2 receptors; [2])
CS(=O)(=O)NCC1(c2ccc(N3CCC[C@@H](NC(=O)Nc4cnc(Cl)cn4)C3=O)cc2)CCC1 [Example 6] | 0.0007 µM | 0.1 µM | 
CS(=O)(=O)NCC1(c2ccc(N3CCC[C@@H](NC(=O)Nc4cnc(Cl)cn4)C3=O)cc2)CC1 [Example 27] | 0.00091 µM | 0.13 µM | 
CS(=O)(=O)NCC1(c2ccc(N3CCC[C@@H](NC(=O)Nc4ccc(C(F)(F)F)cc4)C3=O)cc2)CC1 [Example 42] | 0.00021 µM | 0.033 µM | 
CS(=O)(=O)NCC1(c2ccc(N3CCC[C@H](NC(=O)Nc4ncc(Cl)cc4F)C3=O)cc2)CC1 [Example 41] | 0.98 µM | 7.6 µM | 
CS(=O)(=O)NCC1(c2ccc(N3CCC[C@@H](NC(=O)Nc4ccc(C(F)(F)F)cc4)C3=O)cc2F)CC1 [Example 18] | 0.00017 µM | 0.002 µM | 
CS(=O)(=O)NCC1(c2ccc(N3CCC[C@@H](NC(=O)Nc4ncc(C(F)(F)F)cn4)C3=O)cc2)CC1 [Example 16] |  |  | 0.01 to 0.1 µM
Cc1cnc(NC(=O)N[C@@H]2CCCN(c3ccc(C4(CNS(C)(=O)=O)CC4)cc3)C2=O)cn1 [Example 25] |  |  | ≤ 0.01 µM
COc1cnc(NC(=O)N[C@H]2CCCN(c3ccc(C4(CNS(C)(=O)=O)CC4)cc3)C2=O)cn1 [Example 11] |  |  | 0.1 to 1.25 µM
CS(=O)(=O)NCC1(c2ccc(N3CCC[C@@H](NC(=O)Nc4ccc(C(F)(F)F)nc4)C3=O)cc2)CCCC1 [Example 31] |  |  | ≤ 0.01 µM

Now from value to compound:

EC50 (human FPR2 receptors; [1]) | EC50 (human FPR1 receptors) | EC50 (human FPR2 receptors; [2]) | SMILES
0.017 µM | 0.7 µM |  | O=C(Nc1ccc(Cl)cn1)N[C@@H]1CCCN(c2ccc(C3(CN4CCOCC4)CC3)cc2)C1=O [Example 53, (R)-1-(5-chloropyridin-2-yl)-3-(1-(4-(1-(morpholinomethyl)cyclopropyl)phenyl)-2-oxopiperidin-3-yl)urea]
0.017 µM | 2.1 µM |  | CS(=O)(=O)NCC1(c2ccc(N3C[C@@H](O)C[C@@H](NC(=O)Nc4ncc(Cl)cc4F)C3=O)cc2)CC1 [Example 71]
83 µM | 330 µM |  | CC(=O)NC(C)C1(c2ccc(N3CCC[C@@H](NC(=O)Nc4ccc(C(F)(F)F)nc4)C3=O)cc2)CC1 (stereo partly drawn) [Example 73]
0.019 µM | 0.66 µM |  | CS(=O)(=O)NCC1(c2ccc(N3C[C@@H](O)C[C@H](NC(=O)Nc4ncc(C(F)(F)F)cc4F)C3=O)cc2)CC1 [Example 69, N-((1-(4-((3S,5S)-3-(3-(3-fluoro-5-(trifluoromethyl)pyridin-2-yl)ureido)-5-hydroxy-2-oxopiperidin-1-yl)phenyl)cyclopropyl)methyl)methanesulfonamide]
1 µM | 3.4 µM |  | O=C(Nc1ccc(C(F)(F)F)nc1)N[C@H]1CCCN(c2ccc(C3(CN4CCCC4)CCCC3)cc2)C1=O [Example 58, (S)-1-(2-oxo-1-(4-(1-(pyrrolidin-1-ylmethyl)cyclopentyl)phenyl)piperidin-3-yl)-3-(6-(trifluoromethyl)pyridin-3-yl)urea]
3.2 µM | 3.6 µM |  | O=C(Nc1ccc(Cl)cc1F)N[C@@H]1CCCN(c2ccc(C3CCC(O)C3)cc2)C1=O (stereo partly drawn) [Example 77, 1-(4-Chloro-2-fluorophenyl)-3-((3R)-1-(4-(3-hydroxycyclopentyl)phenyl)-2-oxopiperidin-3-yl)urea]
0.96 µM | > 5000 µM |  | O=C(Nc1ccc(C(F)(F)F)nc1)N[C@H]1CCCN(c2ccc(C3(CN4CCCC4)CCC3)cc2)C1=O [Example 57, (S)-1-(2-oxo-1-(4-(1-(pyrrolidin-1-ylmethyl)cyclobutyl)phenyl)piperidin-3-yl)-3-(6-(trifluoromethyl)pyridin-3-yl)urea]
1.2 µM | 1.1 µM |  | O=C(Nc1ccc(C(F)(F)F)nc1)N[C@H]1CCCN(c2ccc(C3(CN4CCOCC4)CCC3)cc2)C1=O [Example 62, (S)-1-(1-(4-(1-(morpholinomethyl)cyclobutyl)phenyl)-2-oxopipendin-3-yl)-3-(6-(trifluoromethyl)pyridin-3-yl)urea]
 |  | ≤ 0.01 µM | CS(=O)(=O)NCC1(c2ccc(N3CCC[C@@H](NC(=O)Nc4ccc(C(F)(F)F)cn4)C3=O)cc2)CC1 [Example 46]
 |  | 0.1 to 1.25 µM | O=C(Nc1ncc(Cl)cc1F)N[C@@H]1CCCN(c2ccc(C3(CN4CCOCC4)CC3)cc2)C1=O [Example 54, (R)-1-(5-chloro-3-fluoropyridin-2-yl)-3-(1-(4-(1-(morpholinomethyl)cyclopropyl)phenyl)-2-oxopiperidin-3-yl)urea]
 |  | 0.1 to 1.25 µM | CS(=O)(=O)NCC1(c2ccc(N3CCC[C@H](NC(=O)Nc4ccc(C(F)(F)F)cn4)C3=O)cc2)CC1 [Example 47]
 |  | 0.1 to 1.25 µM | O=C(Nc1ccc(C(F)(F)F)cn1)N[C@@H]1CCCN(c2ccc(C3(CN4CCCC4)CCCC3)cc2)C1=O [Example 60, (R)-1-(2-oxo-1-(4-(1-(pyrrolidin-1-ylmethyl)cyclopentyl)phenyl)piperidin-3-yl)-3-(5-(trifluoromethyl)pyridin-2-yl)urea]
0.017 µM | 0.56 µM |  | O=C(Nc1ccc(C(F)(F)F)nc1)N[C@@H]1CCCN(c2ccc(C3(CN4CCOCC4)CCC3)cc2)C1=O [Example 52, (R)-1-(1-(4-(1-(Morpholinomethyl)cyclobutyl)phenyl)-2-oxopiperidin-3-yl)-3-(6-(trifluoromethyl)pyridin-3-yl)urea]
